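48-hour exposure; five concentrations; linearly interpolated endpoints. GI50 marks 50% less growth.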 Calls of active or inactive are those of the source. Cut-off read from the data, not from the text of the source: active = GI50 up to about 1.1 µM and inactive = higher.
What was measured:
Experiment in all cases: NCI-60 cell line screen, 48 h
[1] = test system: RPMI-8226
[2] = test system: OVCAR-8
[3] = test system: OVCAR-3
[4] = test system: IGROV-1
[5] = test system: Malme-3M
[6] = test system: M14
[7] = test system: LOX IMVI
[8] = test system: TK-10
[9] = test system: SNB-19
[10] = test system: SN12C
[11] = test system: RXF 393
[12] = test system: CAKI-1
[13] = test system: MOLT-4
[14] = test system: HOP-62
[15] = test system: DLD-1
[16] = test system: KM12
[17] = test system: HOP-92
[18] = test system: SNB-78
[19] = test system: COLO 205
[20] = test system: ACHN
[21] = test system: NCI-H23
[22] = test system: SK-MEL-2
[23] = test system: HCC 2998
[24] = test system: CCRF-CEM
[25] = test system: K562
[26] = test system: UACC-62
[27] = test system: SR
[28] = test system: SF-539
[29] = test system: NCI-H226
[30] = test system: LXFL 529
[31] = test system: SNB-75
[32] = test system: DMS-114
[33] = test system: 786-0
[34] = test system: OVCAR-5
[35] = test system: SW-620
[36] = test system: A498
[37] = test system: HL-60
[38] = test system: OVCAR-4
[39] = test system: SK-MEL-5
[40] = test system: SF-268
[41] = test system: EKVX
[42] = test system: HCT-116
[43] = test system: SF-295
[44] = test system: NCI-H460
[45] = test system: UO-31
[46] = test system: SK-OV-3
[47] = test system: DMS-273
[48] = test system: A549
[49] = test system: U-251
[50] = test system: KM-20L2
[51] = test system: RXF 631
[52] = test system: HT-29
[53] = test system: HCT-15
[54] = test system: UACC-257
[55] = test system: M19-MEL
[56] = test system: XF498
[57] = test system: SK-MEL-28
[58] = test system: HOP-18

In the case of `COc1cc([C@@H]2c3cc4c(cc3[C@@H](NC(=O)c3cccc(N)c3)C3COC(=O)[C@@H]32)OCO4)cc(OC)c1O` (some centres not stated), the GI50 [1] is reported as 0.507 µM (active), the GI50 [2] is reported as 1.97 µM (inactive) and the GI50 [3] is reported as 4.35 µM (inactive). The GI50 [4] was 6.05 µM (inactive), the GI50 [5] was 0.942 µM (active) and the GI50 [6] was 1.26 µM (inactive). The GI50 [7] was 0.491 µM (active), the GI50 [8] was 3.31 µM (inactive) and the GI50 [9] was 0.569 µM (active). For the same compound, the GI50 [10] was 0.445 µM (active), the GI50 [11] was 3.42 µM (inactive) and the GI50 [12] was 0.333 µM (active). For the same compound, the GI50 [13] was < 0.0147 µM (active), the GI50 [14] was 0.0231 µM (active) and the GI50 [15] was 7.03 µM (inactive). For the same compound, the GI50 [16] was 2.42 µM (inactive), the GI50 [17] was 0.946 µM (active) and the GI50 [18] was 3.92 µM (inactive). The GI50 [19] was 11 µM (inactive), the GI50 [20] was 0.166 µM (active) and the GI50 [21] was 0.261 µM (active). For the same compound, the GI50 [22] was 3.3 µM (inactive), the GI50 [23] was 2.21 µM (inactive) and the GI50 [24] was 0.0802 µM (active). For the same compound, the GI50 [25] was 2.11 µM (inactive), the GI50 [26] was 0.619 µM (active) and the GI50 [27] was < 0.01 µM (active). For the same compound, the GI50 [28] was 0.284 µM (active), the GI50 [29] was 0.236 µM (active) and the GI50 [30] was 13.1 µM (inactive). The GI50 [31] was 1.48 µM (inactive), the GI50 [32] was 0.968 µM (active) and the GI50 [33] was 0.421 µM (active). The GI50 [34] was 2.58 µM (inactive), the GI50 [35] was 0.391 µM (active) and the GI50 [36] was 0.76 µM (active). The GI50 [37] was 0.233 µM (active), the GI50 [38] was 17.4 µM (inactive) and the GI50 [39] was 1.66 µM (inactive). The GI50 [40] was 0.935 µM (active), the GI50 [41] was 2.61 µM (inactive) and the GI50 [42] was 2.28 µM (inactive). For the same compound, the GI50 [43] was 0.262 µM (active), the GI50 [44] was < 0.01 µM (active) and the GI50 [45] was 9.06 µM (inactive). The GI50 [46] was 1.97 µM (inactive), the GI50 [47] was 0.117 µM (active) and the GI50 [48] was 0.0465 µM (active). For the same compound, the GI50 [49] was 0.242 µM (active), the GI50 [50] was 2.97 µM (inactive) and the GI50 [51] was 0.412 µM (active). For the same compound, the GI50 [52] was 2.83 µM (inactive), the GI50 [53] was 1.99 µM and the GI50 [54] was 10.7 µM (inactive). The GI50 [55] was 3.41 µM (inactive), the GI50 [56] was 1.11 µM (active) and the GI50 [57] was 8.63 µM (inactive).

With `Cc1ccc(NC(=O)CC/C(CC(=O)C(C)(C)C)=N/NC(=O)c2cc3ccccc3cc2O)cc1C` the GI50 [2] was 26.8 µM (inactive), the GI50 [3] was 32.7 µM (inactive) and the GI50 [4] was 32.8 µM (inactive). The GI50 [5] was 35.2 µM (inactive), the GI50 [6] was 32.5 µM (inactive) and the GI50 [7] was 20.3 µM (inactive). The GI50 [9] was 39.5 µM (inactive), the GI50 [10] was 33.6 µM (inactive) and the GI50 [11] was 35.2 µM (inactive). The GI50 [12] was > 100 µM (inactive), the GI50 [13] was 17.7 µM (inactive) and the GI50 [14] was 36.8 µM (inactive). For the same compound, the GI50 [15] was 30 µM (inactive), the GI50 [16] was 36.6 µM (inactive) and the GI50 [17] was 47.6 µM (inactive). The GI50 [18] was 60.5 µM (inactive), the GI50 [19] was 39.1 µM (inactive) and the GI50 [20] was 31 µM (inactive). The GI50 [21] was 19.6 µM (inactive), the GI50 [22] was 32.4 µM (inactive) and the GI50 [23] was 29.2 µM (inactive). For the same compound, the GI50 [24] was 16.2 µM (inactive), the GI50 [25] was > 10 µM (inactive) and the GI50 [26] was 24.5 µM (inactive). For the same compound, the GI50 [29] was 37.2 µM (inactive), the GI50 [30] was 35.2 µM (inactive) and the GI50 [32] was 31.6 µM (inactive). For the same compound, the GI50 [34] was 32.1 µM (inactive), the GI50 [35] was 48 µM (inactive) and the GI50 [37] was 20.4 µM (inactive). The GI50 [38] was 30.8 µM (inactive), the GI50 [40] was 33.3 µM (inactive) and the GI50 [41] was 36.5 µM (inactive). The GI50 [42] was 40.3 µM (inactive), the GI50 [43] was 17.9 µM (inactive) and the GI50 [44] was 39.4 µM (inactive). For the same compound, the GI50 [58] was 32.1 µM (inactive), the GI50 [45] was 38.6 µM (inactive) and the GI50 [46] was 50 µM (inactive). For the same compound, the GI50 [49] was 35.6 µM (inactive), the GI50 [50] was 34.5 µM (inactive) and the GI50 [51] was 44.1 µM (inactive). The GI50 [52] was 41.7 µM (inactive), the GI50 [53] was 27.7 µM and the GI50 [54] was 38.1 µM (inactive). For the same compound, the GI50 [55] was 39.4 µM (inactive) and the GI50 [57] was 80 µM (inactive).

With `CC1CN(C(=O)CN2CCC(CCCCN(C)C)CC2)c2ccccc2NC1=O` (configuration not stated) the GI50 [1] was > 100 µM (inactive), the GI50 [3] was > 100 µM (inactive) and the GI50 [4] was > 100 µM (inactive). The GI50 [5] was > 100 µM (inactive), the GI50 [6] was > 100 µM (inactive) and the GI50 [7] was > 100 µM (inactive). For the same compound, the GI50 [9] was > 100 µM (inactive), the GI50 [10] was > 100 µM (inactive) and the GI50 [12] was 90.6 µM (inactive). For the same compound, the GI50 [13] was > 100 µM (inactive), the GI50 [14] was > 100 µM (inactive) and the GI50 [15] was > 100 µM (inactive). The GI50 [17] was > 100 µM (inactive), the GI50 [19] was > 100 µM (inactive) and the GI50 [20] was > 100 µM (inactive). The GI50 [21] was > 100 µM (inactive), the GI50 [23] was > 100 µM (inactive) and the GI50 [24] was > 100 µM (inactive). For the same compound, the GI50 [25] was > 100 µM (inactive), the GI50 [26] was > 100 µM (inactive) and the GI50 [27] was > 100 µM (inactive). For the same compound, the GI50 [29] was > 100 µM (inactive), the GI50 [30] was > 100 µM (inactive) and the GI50 [32] was > 100 µM (inactive). For the same compound, the GI50 [33] was > 100 µM (inactive), the GI50 [34] was > 100 µM (inactive) and the GI50 [35] was > 100 µM (inactive). The GI50 [36] was > 100 µM (inactive), the GI50 [37] was > 100 µM (inactive) and the GI50 [38] was > 100 µM (inactive). The GI50 [39] was > 100 µM (inactive), the GI50 [40] was > 100 µM (inactive) and the GI50 [42] was > 100 µM (inactive). For the same compound, the GI50 [43] was > 100 µM (inactive), the GI50 [44] was > 100 µM (inactive) and the GI50 [58] was > 100 µM (inactive). For the same compound, the GI50 [45] was > 100 µM (inactive), the GI50 [46] was > 100 µM (inactive) and the GI50 [47] was > 100 µM (inactive). The GI50 [48] was > 100 µM (inactive), the GI50 [49] was > 100 µM (inactive) and the GI50 [50] was > 100 µM (inactive). The GI50 [51] was > 100 µM (inactive), the GI50 [52] was > 100 µM (inactive) and the GI50 [53] was > 100 µM. The GI50 [54] was > 100 µM (inactive), the GI50 [55] was > 100 µM (inactive) and the GI50 [57] was > 100 µM (inactive).

Source: ChEMBL document CHEMBL1201862, “PubChem BioAssay data set” (2004)
